Values of other authors in US5246969A, “Di-propargyl-containing aryl/alkylsulfonyl-terminated alanine amino-diol compounds for treatment of hypertension” (G. D. Searle & Co., priority 1992, dated 1993).
Square brackets hold non-standard residues; d marks the D form. Peptide text beside a SMILES is read from it. * marks the point of attachment. Sta = CC(C)C[C@H](N)[C@@H](O)CC(=O)O; Isovaleryl = CC(C)CC(=O)*

Test system: hog renin
Conditions: nephrectomized rats after the injection of hog renin

SMILES: CC(C)CC(=O)N[C@H](C(=O)N[C@H](C(=O)N[C@@H](CC(C)C)[C@@H](O)CC(=O)N[C@@H](C)C(=O)N[C@@H](CC(C)C)[C@@H](O)CC(=O)O)C(C)C)C(C)C [pepstatin] (Isovaleryl-VV[Sta]A[Sta]-OH)
- blood pressure in vivo: reduce blood pressure
